The values below come from paper PMC5862592, “CDK8/19 inhibition induces premature G1/S transition and ATR-dependent cell death in prostate cancer cells” (Oncotarget, 2018).

Like-named read-outs stand apart in the source and are kept apart here.

Common to all, as to assay: biochemical
What all share (design): KINOMEscan active site-directed competition binding assay (DiscoveRx), 456 kinases, per cent of control at 300 nM
Common to all, as to details: read-out: Percent of Control (%)

The target of assay [1] is CAMK1D (Homo sapiens, UniProt Q8IU85). Summed up: (§1)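 Compounds at 300 nmol/L screened against 456 kinases by KINOMEscan, a competition binding assay measuring displacement at the kinase active site.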
Assay [2] addresses PRKCI (Homo sapiens, UniProt P41743). Summed up: as §1
Assay [3] deals with GSK3A (Homo sapiens, UniProt P49840). Summed up:
as §1

Assay [4] deals with T1, IKK-beta (Homo sapiens, UniProt O14920).
T1 construct: gene IKBKB
Summed up:
as §1

The target in assay [5] is T2, PIP5K2C (Homo sapiens, UniProt Q8TBX8).
T2 construct: gene PIP4K2C
Summed up:
as §1

Assay [6] addresses PKN2 (Homo sapiens, UniProt Q16513). Summed up:
as §1

For assay [7], the target named is PRKCD (Homo sapiens, UniProt Q05655). Summed up:
as §1

For assay [8], the target named is T3, MEK5 (Homo sapiens, UniProt Q13163).
T3 construct: gene MAP2K5
Summed up:
as §1

Assay [9] deals with MET(M1250T) (Homo sapiens, UniProt P08581, M1250T). Summed up:
as §1

Assay [10] has as its target T4, HPK1 (Homo sapiens, UniProt Q92918).
T4 construct: gene MAP4K1
Summed up:
as §1

The target of assay [11] is T5, OSR1 (Homo sapiens, UniProt O95747).
T5 construct: gene OXSR1
Summed up:
as §1

For assay [12], the target named is PAK4 (Homo sapiens, UniProt O96013). Summed up:
as §1

The target in assay [13] is VRK2 (Homo sapiens, UniProt Q86Y07). Summed up: as §1
The target in assay [14] is T6, QSK (Homo sapiens, UniProt Q9Y2K2).
T6 construct: gene SIK3
Summed up:
as §1

For assay [15], the target named is FLT3(R834Q) (Homo sapiens, UniProt P36888, R834Q). Summed up: as §1
The target in assay [16] is CSNK1G3 (Homo sapiens, UniProt Q9Y6M4). Summed up:
as §1

In assay [17] the target is CDKL2 (Homo sapiens, UniProt Q92772). Summed up: as §1
Assay [18] deals with RET (Homo sapiens, UniProt P07949). Summed up: as §1
In assay [19] the target is SIK2 (Homo sapiens, UniProt Q9H0K1). Summed up: as §1
For assay [20], the target named is CAMK2B (Homo sapiens, UniProt Q13554). Summed up: as §1
Assay [21] deals with T7, JAK1(JH2domain-pseudokinase) (Homo sapiens, UniProt P23458).
T7 construct: JH2domain-pseudokinase
Summed up:
as §1

The target of assay [22] is PLK3 (Homo sapiens, UniProt Q9H4B4). Summed up:
as §1

VRK2, sequence (Q86Y07 whole entry): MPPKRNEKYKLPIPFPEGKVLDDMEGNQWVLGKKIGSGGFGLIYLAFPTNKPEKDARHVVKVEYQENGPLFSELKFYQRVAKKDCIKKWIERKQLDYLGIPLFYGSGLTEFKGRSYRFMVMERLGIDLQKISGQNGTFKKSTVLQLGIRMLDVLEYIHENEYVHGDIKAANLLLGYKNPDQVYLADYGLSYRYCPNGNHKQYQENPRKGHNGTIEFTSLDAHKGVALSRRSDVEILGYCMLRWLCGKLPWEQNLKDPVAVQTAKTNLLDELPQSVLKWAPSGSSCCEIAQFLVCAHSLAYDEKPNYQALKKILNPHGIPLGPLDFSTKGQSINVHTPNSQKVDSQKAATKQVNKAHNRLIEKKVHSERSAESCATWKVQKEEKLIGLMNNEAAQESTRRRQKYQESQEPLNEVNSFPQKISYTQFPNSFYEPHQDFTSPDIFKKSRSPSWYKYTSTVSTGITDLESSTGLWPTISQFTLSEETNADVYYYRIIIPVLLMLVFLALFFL
PLK3, sequence (Q9H4B4 whole entry): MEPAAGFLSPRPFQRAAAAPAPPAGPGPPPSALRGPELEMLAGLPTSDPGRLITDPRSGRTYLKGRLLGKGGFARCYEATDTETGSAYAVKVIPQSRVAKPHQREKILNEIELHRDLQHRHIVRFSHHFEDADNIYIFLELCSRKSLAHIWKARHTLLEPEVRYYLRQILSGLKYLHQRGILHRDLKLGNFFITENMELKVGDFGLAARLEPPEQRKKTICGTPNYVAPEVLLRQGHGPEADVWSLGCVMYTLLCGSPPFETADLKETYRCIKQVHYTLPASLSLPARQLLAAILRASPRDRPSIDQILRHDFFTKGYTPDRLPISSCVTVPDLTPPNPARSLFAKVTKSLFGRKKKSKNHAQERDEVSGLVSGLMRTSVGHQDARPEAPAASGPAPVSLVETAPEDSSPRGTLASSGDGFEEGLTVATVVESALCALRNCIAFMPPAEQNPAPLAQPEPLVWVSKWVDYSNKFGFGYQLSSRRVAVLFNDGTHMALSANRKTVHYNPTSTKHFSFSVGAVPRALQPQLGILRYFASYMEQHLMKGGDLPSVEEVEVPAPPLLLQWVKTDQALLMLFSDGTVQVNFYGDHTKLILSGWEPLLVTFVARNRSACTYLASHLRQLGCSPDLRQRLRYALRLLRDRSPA
T6 sequence (Q9Y2K2 whole entry): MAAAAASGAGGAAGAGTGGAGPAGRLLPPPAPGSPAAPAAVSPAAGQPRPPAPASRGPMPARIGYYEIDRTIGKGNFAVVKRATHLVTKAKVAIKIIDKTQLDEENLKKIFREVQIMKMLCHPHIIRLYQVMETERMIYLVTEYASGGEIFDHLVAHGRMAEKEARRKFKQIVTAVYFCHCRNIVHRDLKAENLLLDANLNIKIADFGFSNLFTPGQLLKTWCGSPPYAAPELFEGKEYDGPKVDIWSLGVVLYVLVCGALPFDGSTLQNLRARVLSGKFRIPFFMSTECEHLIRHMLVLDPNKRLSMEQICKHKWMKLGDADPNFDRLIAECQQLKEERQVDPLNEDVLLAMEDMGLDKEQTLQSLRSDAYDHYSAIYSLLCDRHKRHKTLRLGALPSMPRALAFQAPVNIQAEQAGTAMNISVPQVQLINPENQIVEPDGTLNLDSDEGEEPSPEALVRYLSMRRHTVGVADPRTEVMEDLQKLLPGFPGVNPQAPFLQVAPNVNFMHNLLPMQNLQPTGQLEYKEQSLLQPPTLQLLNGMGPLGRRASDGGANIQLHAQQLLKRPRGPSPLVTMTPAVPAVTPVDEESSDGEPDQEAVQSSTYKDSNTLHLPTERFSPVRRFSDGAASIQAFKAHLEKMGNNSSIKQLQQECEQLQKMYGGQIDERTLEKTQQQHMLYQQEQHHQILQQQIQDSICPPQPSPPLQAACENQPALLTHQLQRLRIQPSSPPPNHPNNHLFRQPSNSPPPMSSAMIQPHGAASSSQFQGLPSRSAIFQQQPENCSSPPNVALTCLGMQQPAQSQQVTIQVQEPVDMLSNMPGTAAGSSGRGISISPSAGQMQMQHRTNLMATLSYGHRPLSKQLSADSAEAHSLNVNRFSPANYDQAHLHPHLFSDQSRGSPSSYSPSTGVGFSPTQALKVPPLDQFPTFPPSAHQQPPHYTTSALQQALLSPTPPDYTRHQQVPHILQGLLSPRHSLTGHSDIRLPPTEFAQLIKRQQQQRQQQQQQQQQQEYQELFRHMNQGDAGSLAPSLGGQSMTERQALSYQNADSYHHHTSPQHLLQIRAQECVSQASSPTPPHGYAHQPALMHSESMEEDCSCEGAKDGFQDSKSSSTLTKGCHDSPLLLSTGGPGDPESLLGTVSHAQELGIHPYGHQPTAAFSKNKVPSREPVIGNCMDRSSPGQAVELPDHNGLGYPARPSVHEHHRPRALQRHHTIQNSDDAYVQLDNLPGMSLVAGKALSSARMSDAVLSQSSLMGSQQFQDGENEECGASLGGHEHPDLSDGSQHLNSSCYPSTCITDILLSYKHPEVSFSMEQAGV
T4 sequence (Q92918 whole entry): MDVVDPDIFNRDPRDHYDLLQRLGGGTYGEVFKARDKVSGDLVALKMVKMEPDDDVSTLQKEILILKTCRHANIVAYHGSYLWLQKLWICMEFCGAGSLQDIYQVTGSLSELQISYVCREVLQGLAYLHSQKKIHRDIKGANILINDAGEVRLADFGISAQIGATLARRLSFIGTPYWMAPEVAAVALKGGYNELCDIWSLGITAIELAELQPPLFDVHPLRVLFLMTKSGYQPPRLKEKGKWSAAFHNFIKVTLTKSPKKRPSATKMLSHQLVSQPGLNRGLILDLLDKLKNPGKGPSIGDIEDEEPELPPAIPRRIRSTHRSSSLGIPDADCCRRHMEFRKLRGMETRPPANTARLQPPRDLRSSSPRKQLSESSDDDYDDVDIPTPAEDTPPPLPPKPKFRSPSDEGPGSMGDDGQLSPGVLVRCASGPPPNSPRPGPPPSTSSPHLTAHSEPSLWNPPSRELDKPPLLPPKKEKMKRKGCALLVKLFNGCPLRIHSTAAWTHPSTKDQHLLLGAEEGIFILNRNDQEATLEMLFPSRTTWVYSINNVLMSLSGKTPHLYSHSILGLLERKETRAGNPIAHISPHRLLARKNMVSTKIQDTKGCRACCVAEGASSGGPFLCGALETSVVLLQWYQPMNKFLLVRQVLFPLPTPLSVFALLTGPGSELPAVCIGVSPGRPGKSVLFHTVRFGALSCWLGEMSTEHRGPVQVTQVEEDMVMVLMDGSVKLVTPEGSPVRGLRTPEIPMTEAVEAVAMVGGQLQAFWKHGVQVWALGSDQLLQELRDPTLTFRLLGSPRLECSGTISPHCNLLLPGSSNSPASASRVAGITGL
T7 sequence (P23458 whole entry): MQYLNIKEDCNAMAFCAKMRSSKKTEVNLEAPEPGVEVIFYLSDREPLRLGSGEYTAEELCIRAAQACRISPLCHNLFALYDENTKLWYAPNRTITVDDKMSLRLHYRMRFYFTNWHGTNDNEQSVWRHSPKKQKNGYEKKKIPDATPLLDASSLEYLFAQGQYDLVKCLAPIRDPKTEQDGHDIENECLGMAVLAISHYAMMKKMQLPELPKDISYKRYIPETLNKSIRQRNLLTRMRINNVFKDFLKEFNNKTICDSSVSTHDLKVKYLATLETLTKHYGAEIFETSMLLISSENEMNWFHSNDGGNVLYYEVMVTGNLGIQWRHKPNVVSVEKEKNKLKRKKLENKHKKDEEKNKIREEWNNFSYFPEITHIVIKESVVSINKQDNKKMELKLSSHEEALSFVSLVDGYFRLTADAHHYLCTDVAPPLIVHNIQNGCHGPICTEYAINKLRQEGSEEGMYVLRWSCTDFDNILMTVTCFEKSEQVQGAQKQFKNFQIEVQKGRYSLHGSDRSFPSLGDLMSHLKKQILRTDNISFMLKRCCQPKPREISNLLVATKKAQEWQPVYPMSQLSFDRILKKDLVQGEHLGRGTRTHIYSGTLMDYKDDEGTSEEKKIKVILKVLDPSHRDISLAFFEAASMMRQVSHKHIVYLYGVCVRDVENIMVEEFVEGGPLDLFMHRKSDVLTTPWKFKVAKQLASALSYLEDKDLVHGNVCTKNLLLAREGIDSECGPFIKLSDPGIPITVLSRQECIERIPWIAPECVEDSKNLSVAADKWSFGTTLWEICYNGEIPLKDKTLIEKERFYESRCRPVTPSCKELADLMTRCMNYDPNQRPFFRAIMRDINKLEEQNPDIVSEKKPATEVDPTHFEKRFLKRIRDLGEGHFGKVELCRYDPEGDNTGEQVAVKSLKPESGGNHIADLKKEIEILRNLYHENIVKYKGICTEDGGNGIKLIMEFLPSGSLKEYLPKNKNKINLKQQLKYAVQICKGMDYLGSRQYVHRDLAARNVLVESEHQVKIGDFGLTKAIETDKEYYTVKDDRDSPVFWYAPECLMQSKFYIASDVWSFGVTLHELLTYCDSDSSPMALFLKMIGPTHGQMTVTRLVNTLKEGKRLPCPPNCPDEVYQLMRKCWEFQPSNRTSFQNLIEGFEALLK
CSNK1G3, sequence (Q9Y6M4 whole entry): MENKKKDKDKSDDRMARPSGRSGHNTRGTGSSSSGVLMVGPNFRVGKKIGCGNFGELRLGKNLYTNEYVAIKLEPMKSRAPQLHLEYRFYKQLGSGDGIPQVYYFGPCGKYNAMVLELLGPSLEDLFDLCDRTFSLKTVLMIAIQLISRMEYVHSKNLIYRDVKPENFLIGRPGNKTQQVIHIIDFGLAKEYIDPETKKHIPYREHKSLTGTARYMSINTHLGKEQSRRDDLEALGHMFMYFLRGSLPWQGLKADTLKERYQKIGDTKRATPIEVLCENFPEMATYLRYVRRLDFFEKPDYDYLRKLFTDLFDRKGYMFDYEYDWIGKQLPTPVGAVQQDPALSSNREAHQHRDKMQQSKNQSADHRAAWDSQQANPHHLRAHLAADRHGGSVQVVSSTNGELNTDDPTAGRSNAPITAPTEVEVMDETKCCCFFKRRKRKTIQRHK

Turning to `O=C(/C=C/c1cnccc1-c1ccc(F)cc1)Nc1ccc(CCc2nnco2)cc1` [T-418, (2E)-3-(4-(4-fluorophenyl)pyridin-3-yl)-N-(4-(2-(1,3,4-oxadiazol-2-yl)ethyl)phenyl)acrylamide], the remaining binding at 0.3 µM was found to be 94% in assay [1] (sheet T-418); 70% in assay [2] (sheet T-418); 64% in assay [3] (sheet T-418); 100% in assay [4] (sheet T-418); 74% in assay [5] (sheet T-418); 95% in assay [6] (sheet T-418). The remaining binding at 0.3 µM in assay [7] (sheet T-418) stood at 100%; in [8] (sheet T-418), 100%; in [9] (sheet T-418), 97%; in [10] (sheet T-418), 95%; in assay [11] (sheet T-418), 53%; in assay [12] (sheet T-418), 99%. Moreover, the remaining binding at 0.3 µM in [13] (sheet T-418) is 100%; in [14] (sheet T-418), 95%; in [15] (sheet T-418), 88%; in [16] (sheet T-418) it was 100%; in assay [17] (sheet T-418), 100%; in assay [18] (sheet T-418), 63%. Besides, the remaining binding at 0.3 µM in assay [19] (sheet T-418) was 100%; in assay [20] (sheet T-418), 84%; in assay [21] (sheet T-418) it was 100%; in assay [22] (sheet T-418), 82%.
As to `Cc1ncccc1Oc1sc(C(N)=O)c2c1-c1c(cnn1C)CC2` [T-474, 1-methyl-8-((2-methylpyridin-3-yl)oxy)-4,5-dihydro-1H-thieno[3,4-g]indazole-6-carboxamide], the remaining binding at 0.3 µM was 79% in [1]; 77% in [2]; 70% in assay [3]; 100% in assay [4]; 74% in assay [5]; 100% in [6]. In addition, the remaining binding at 0.3 µM in [7] was 96%; in assay [8] it was 100%; in [9], 100%; in assay [10] it was 78%; in assay [11] it was 60%; in assay [12], 100%. The remaining binding at 0.3 µM was 100% in [13]; 93% in [14]; 91% in [15]; 100% in assay [16]; 100% in [17]; 100% in assay [18]. In addition, the remaining binding at 0.3 µM in assay [19] stood at 100%; in [20], 99%; in assay [21], 100%; in assay [22], 88%.
